Measurements: patent US9708314B2, “Heterocyclic amide compound” (NISSAN CHEMICAL INDUSTRIES, LTD., priority 2013, dated 2017)

Tests used:
Format in all cases: in vivo
Triticum aestivum = experiment: Test Example 4: effect on crop by application to foliage (diluvial soil, plastic box); conditions: application to foliage; for e: effect on crop, Triticum aestivum: application herbicide amount 320 g/ha
In short: (§1)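 Greenhouse plants (25° C. to 30° C., 14 d, diluvial soil) receive a foliar spray of water-diluted emulsifiable formulation at defined g/ha. Grading after 3 weeks uses a six-step herbicidal-ratio scale, with 4 covering 70% to <90% and 1 covering 5% to <20%.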

[1] = test system: directly sowed Oryza sativa; experiment: as above; conditions: application to foliage; for b: effect on crop, directly sowed Oryza sativa: application herbicide amount 320 g/ha
In short: as §1

Glycine max = experiment: as above; conditions: application to foliage; for d: effect on crop, Glycine max: application herbicide amount 320 g/ha
In short: as §1

Zea mays = experiment: as above; conditions: application to foliage; for c: effect on crop, Zea mays: application herbicide amount 320 g/ha
In short: as §1

Brassica campestris L. = experiment: as above; conditions: application to foliage; for g: effect on crop, Brassica campestris L.: application herbicide amount 320 g/ha
In short: as §1

[2] = test system: Beta vulgaris ssp. vulgaris; experiment: as above; conditions: application to foliage; for f: effect on crop, Beta vulgaris ssp. vulgaris: application herbicide amount 320 g/ha
In short: as §1

Amaranthus retroflexus = experiment: Test Example 4: herbicidal effect by application to foliage (diluvial soil, plastic box); conditions: application to foliage; for N: herbicidal effect on Amaranthus retroflexus: application herbicide amount 320 g/ha
Text: (§2) 5 Herbicidal ratio of 90% or more (almost completely withered) 4 Herbicidal ratio of 70% or more and less than 90% 3 Herbicidal ratio of 40% or more and less than 70% 2 Herbicidal ratio of 20% or more and less than 40% 1 Herbicidal ratio of 5% or more and less than 20% 0 Herbicidal ratio of 5% or less (almost no effect) [Test Example 4] Herbicidal Effect Test by Application to Foliage Sterilized diluvial soil was placed in a plastic box having a length of 21 cm, a width of 13 cm, and a depth of 7 cm. Each of the seeds of Digitaria ciliaris, Setaria viridis, Echinochloa crus-galli var. crus-galli, Avena fatua, Alopecurus myosuroides, Lolium multiflorum Lam., Apera spica-venti., Abutilon theophrasti, Amaranthus retroflexus, Chenopodium album, Stellaria media, Galium spurium, Veronica persica, Zea mays, Glycine max, Oryza sativa, Triticum aestivum, Beta vulgaris ssp. vulgaris, and Brassica campestris L. was sowed in a spot-like manner and was covered with the soil of about 1.5 cm thick. Thereafter, the plants were grown in the greenhouse of 25° C. to 30° C. After the plants were grown for 14 days, the emulsion agent containing the compound of the present invention prepared in accordance with Formulation Example 2 was diluted with water so as to be a predetermined herbicide amount and the diluted compound was uniformly applied to a stem and leaf part with a small-size spray. Three weeks after the herbicide application, effects on each plant were investigated in accordance with the criteria of Test Example 1. A: Echinochloa oryzicola Vasing., B: Scirpus juncoides, C: Monochoria vaginalis, D: Leptochloa chinensis, E: Cyperus difformis, F: Digitaria ciliaris, G: Setaria viridis, H: Echinochloa crus-galli var. crus-galli, I: Avena fatua, J: Alopecurus myosuroides, K: Lolium multiflorum Lam., L: Apera spica-venti., M: Abutilon theophrasti, N: Amaranthus retroflexus, O: Chenopodium album, P: Stellaria media, Q: Galium spurium, R: Veronica persica, a: transplanted Oryza sativa, b: directly sowed Oryza sativa, c: Zea mays, d: Glycine max, e: Triticum aestivum, f: Beta vulgaris ssp. vulgaris, and g: Brassica campestris L. The application herbicide amount (g/ha) means an amount that a concentration is adjusted so that, when an application amount is converted into per hectare (1 ha), the herbicide is applied by the number of grams (g) of the described value.

Galium spurium = experiment: as above; conditions: application to foliage; for Q: herbicidal effect on Galium spurium: application herbicide amount 320 g/ha
Text: as §2

Digitaria ciliaris = experiment: as above; conditions: application to foliage; for F: herbicidal effect on Digitaria ciliaris: application herbicide amount 320 g/ha
Text: as §2

Stellaria media = experiment: as above; conditions: application to foliage; for P: herbicidal effect on Stellaria media: application herbicide amount 320 g/ha
Text: as §2

Abutilon theophrasti = experiment: as above; conditions: application to foliage; for M: herbicidal effect on Abutilon theophrasti: application herbicide amount 320 g/ha
Text: as §2

Veronica persica = experiment: as above; conditions: application to foliage; for R: herbicidal effect on Veronica persica: application herbicide amount 320 g/ha
Text: as §2

Chenopodium album = experiment: as above; conditions: application to foliage; for O: herbicidal effect on Chenopodium album: application herbicide amount 320 g/ha
Text: as §2

Apera spica-venti. = experiment: as above; conditions: application to foliage; for L: herbicidal effect on Apera spica-venti.: application herbicide amount 320 g/ha
Text: as §2

Lolium multiflorum Lam. = experiment: as above; conditions: application to foliage; for K: herbicidal effect on Lolium multiflorum Lam.: application herbicide amount 320 g/ha
Text: as §2

Avena fatua = experiment: as above; conditions: application to foliage; for I: herbicidal effect on Avena fatua: application herbicide amount 320 g/ha
Text: as §2

[3] = test system: Echinochloa crus-galli var. crus-galli; experiment: as above; conditions: application to foliage; for H: herbicidal effect on Echinochloa crus-galli var. crus-galli: application herbicide amount 320 g/ha
Text: as §2

Alopecurus myosuroides = experiment: as above; conditions: application to foliage; for J: herbicidal effect on Alopecurus myosuroides: application herbicide amount 320 g/ha
Text: as §2

Setaria viridis = experiment: as above; conditions: application to foliage; for G: herbicidal effect on Setaria viridis: application herbicide amount 320 g/ha
Text: as §2

Structure (SMILES) | e: effect on crop, Triticum aestivum (Triticum aestivum) | b: effect on crop, directly sowed Oryza sativa [1] | d: effect on crop, Glycine max (Glycine max) | c: effect on crop, Zea mays (Zea mays) | g: effect on crop, Brassica campestris L. (Brassica campestris L.) | f: effect on crop, Beta vulgaris ssp. vulgaris [2] | N: herbicidal effect on Amaranthus retroflexus (Amaranthus retroflexus) | Q: herbicidal effect on Galium spurium (Galium spurium) | F: herbicidal effect on Digitaria ciliaris (Digitaria ciliaris) | P: herbicidal effect on Stellaria media (Stellaria media) | M: herbicidal effect on Abutilon theophrasti (Abutilon theophrasti) | R: herbicidal effect on Veronica persica (Veronica persica) | O: herbicidal effect on Chenopodium album (Chenopodium album) | L: herbicidal effect on Apera spica-venti. (Apera spica-venti.) | K: herbicidal effect on Lolium multiflorum Lam. (Lolium multiflorum Lam.) | I: herbicidal effect on Avena fatua (Avena fatua) | H: herbicidal effect on Echinochloa crus-galli var. crus-galli [3] | J: herbicidal effect on Alopecurus myosuroides (Alopecurus myosuroides) | G: herbicidal effect on Setaria viridis (Setaria viridis) | also measured
CC(C)c1nnc2c(C(=O)Nc3nnnn3C)cc(C(F)(F)F)cn12 [2-018] | 0 (Herbicidal ratio of 5% or less (almost no effect)) | 0 (Herbicidal ratio of 5% or less (almost no effect)) | 0 (Herbicidal ratio of 5% or less (almost no effect)) | 0 (Herbicidal ratio of 5% or less (almost no effect)) | 0 (Herbicidal ratio of 5% or less (almost no effect)) | 1 (Herbicidal ratio of 5% or more and less than 20%) | 3 (Herbicidal ratio of 40% or more and less than 70%) | 1 (Herbicidal ratio of 5% or more and less than 20%) | 2 (Herbicidal ratio of 20% or more and less than 40%) | 0 (Herbicidal ratio of 5% or less (almost no effect)) | 3 (Herbicidal ratio of 40% or more and less than 70%) | 2 (Herbicidal ratio of 20% or more and less than 40%) | 3 (Herbicidal ratio of 40% or more and less than 70%) | 0 (Herbicidal ratio of 5% or less (almost no effect)) | 0 (Herbicidal ratio of 5% or less (almost no effect)) | 0 (Herbicidal ratio of 5% or less (almost no effect)) | 1 (Herbicidal ratio of 5% or more and less than 20%) | 0 (Herbicidal ratio of 5% or less (almost no effect)) | 1 (Herbicidal ratio of 5% or more and less than 20%) | –
CC#Cc1nnc2c(C(=O)Nc3nnco3)ccc(C(F)(F)F)n12 [1-160] | 0 (Herbicidal ratio of 5% or less (almost no effect)) | 0 (Herbicidal ratio of 5% or less (almost no effect)) | 2 (Herbicidal ratio of 20% or more and less than 40%) | 0 (Herbicidal ratio of 5% or less (almost no effect)) | 0 (Herbicidal ratio of 5% or less (almost no effect)) | 2 (Herbicidal ratio of 20% or more and less than 40%) | 1 (Herbicidal ratio of 5% or more and less than 20%) | 0 (Herbicidal ratio of 5% or less (almost no effect)) | 1 (Herbicidal ratio of 5% or more and less than 20%) | 3 (Herbicidal ratio of 40% or more and less than 70%) | 3 (Herbicidal ratio of 40% or more and less than 70%) | 1 (Herbicidal ratio of 5% or more and less than 20%) | 4 (Herbicidal ratio of 70% or more and less than 90%) | 0 (Herbicidal ratio of 5% or less (almost no effect)) | 0 (Herbicidal ratio of 5% or less (almost no effect)) | 0 (Herbicidal ratio of 5% or less (almost no effect)) | 2 (Herbicidal ratio of 20% or more and less than 40%) | 0 (Herbicidal ratio of 5% or less (almost no effect)) | 0 (Herbicidal ratio of 5% or less (almost no effect)) | –
CC(C)c1nnc2c(C(=O)Nc3ncn[nH]3)ccc(C(F)(F)F)n12 [4-004] | – | – | – | – | – | – | – | – | – | – | – | – | – | – | – | – | – | – | – | effect on crop, e (Triticum aestivum) (Triticum aestivum; 320 g/ha): 0 (Herbicidal ratio of 5% or less (almost no effect)); effect on crop, d (directly sowed Oryza sativa) ([1]; 320 g/ha): 0 (Herbicidal ratio of 5% or less (almost no effect)); effect on crop, c (Glycine max) (Glycine max; 320 g/ha): 0 (Herbicidal ratio of 5% or less (almost no effect)); effect on crop, b (Zea mays) (Zea mays; 320 g/ha): 0 (Herbicidal ratio of 5% or less (almost no effect)); effect on crop, g (Brassica campestris L.) (Brassica campestris L.; 320 g/ha): 0 (Herbicidal ratio of 5% or less (almost no effect)); effect on crop, f (Beta vulgaris ssp. vulgaris) ([2]; 320 g/ha): 0 (Herbicidal ratio of 5% or less (almost no effect)); herbicidal effect, N (Amaranthus retroflexus) (Amaranthus retroflexus; 320 g/ha): 0 (Herbicidal ratio of 5% or less (almost no effect)); herbicidal effect, Q (Galium spurium) (Galium spurium; 320 g/ha): 0 (Herbicidal ratio of 5% or less (almost no effect)); herbicidal effect, F (Digitaria ciliaris) (Digitaria ciliaris; 320 g/ha): 0 (Herbicidal ratio of 5% or less (almost no effect)); herbicidal effect, P (Stellaria media) (Stellaria media; 320 g/ha): 0 (Herbicidal ratio of 5% or less (almost no effect)); herbicidal effect, M (Abutilon theophrasti) (Abutilon theophrasti; 320 g/ha): 0 (Herbicidal ratio of 5% or less (almost no effect)); herbicidal effect, R (Veronica persica) (Veronica persica; 320 g/ha): 0 (Herbicidal ratio of 5% or less (almost no effect)); herbicidal effect, O (Chenopodium album) (Chenopodium album; 320 g/ha): 4 (Herbicidal ratio of 70% or more and less than 90%); herbicidal effect, L (Apera spica-venti.) (Apera spica-venti.; 320 g/ha): 0 (Herbicidal ratio of 5% or less (almost no effect)); herbicidal effect, K (Lolium multiflorum Lam.) (Lolium multiflorum Lam.; 320 g/ha): 0 (Herbicidal ratio of 5% or less (almost no effect)); herbicidal effect, I (Avena fatua) (Avena fatua; 320 g/ha): 0 (Herbicidal ratio of 5% or less (almost no effect)); herbicidal effect, H (Echinochloa crus-galli var. crus-galli) ([3]; 320 g/ha): 0 (Herbicidal ratio of 5% or less (almost no effect)); herbicidal effect, J (Alopecurus myosuroides) (Alopecurus myosuroides; 320 g/ha): 0 (Herbicidal ratio of 5% or less (almost no effect)); herbicidal effect, G (Setaria viridis) (Setaria viridis; 320 g/ha): 0 (Herbicidal ratio of 5% or less (almost no effect))
